Counter-ions that a name gives are not always drawn.

The subject of one assay is QT interval. Description: class III antiarrhythmic action in guinea-pigs after intravenous administration (increase in QT interval, ECG). The class given is in vivo, guinea-pigs (Pirbright white). The conditions noted are these: i.v.; for ED20: Cavia porcellus, iv, read-out: Increase in QT interval ED 20%; for Rel. action ED20 (D-sotalol)/ED20 (example): guinea-pigs, potency relative to D-sotalol = 1. On the procedure: The experimental animals are male and female Pirbright white guinea-pigs weighing from 300 to 500 g. They are anaesthetized with 1.5 g/kg urethane i.p. The substances are administered intravenously. The ECG conduction times and the heart rate are measured from a recording from extremity lead II. […] The criterion of a class III action is an increase in the QT interval compared with the values before administration of the substance. An increase in PQ and a large decrease in the heart rate serve as exclusion criteria.

Assay [1] has as its system arrhythmias which are otherwise resistant to therapy, especially reentry arrhythmias. The conditions noted are these: Circulation 68 (1983); Am. Heart J. 109 (1985); J. Clin. Pharmacol. 27 (1987); cited from earlier work.
[2] abbreviates: anaesthetized guinea-pigs (urethane 1.5 g/kg i.p.), ECG extremity lead II, 4 to 6 animals per dose, dose for 20% increase in QT interval, calculated from log dose-response.

For the compound `COc1ccc(/C=C/C(=O)c2cc(C)c(OCCN3CCCCC3)c(C)c2)c(C)c1.O=C(O)/C=C/C(=O)O` [Example 20, 3',5'-Dimethyl-4'-(2-(1-piperidinyl)ethoxy)-4-methoxy-2-methylchalcone fumarate], the ED20 in the assay on QT interval (setting [2]) was 0.73 mg/kg. Moreover, in the assay with QT interval, the “Rel. action ED20 (D-sotalol)/ED20 (example)” value (“Rel. action ED20” below) came out at 4.9. On to `COc1ccc(C=CC(=O)c2cc(C)c(OCCN3CCCC3)c(C)c2)c(C)c1` [Example 15, 3',5'-Dimethyl-4'-(2-(1-pyrrolidinyl)ethoxy)-4-methoxy-2-methylchalconeoxalate], for which, in the assay with QT interval (setting [2]), the ED20 is 1.5 mg/kg. For the same compound, the “Rel. action ED20” value in the assay with QT interval was 2.4. In the case of `CC(C)NCC(O)c1ccc(NS(C)(=O)=O)cc1` (single isomer, unassigned) [D-sotalol, reference compound], the ED20 with QT interval (setting [2]) was 3.6 mg/kg. Also, the “therapeutic advantage of class III antiarrhythmics reported in the literature” value in assay [1] is listed as “acting against arrhythmias which are otherwise resistant to therapy”.

`CCCCc1oc2ccccc2c1C(=O)c1cc(I)c(OCCN(CC)CC)c(I)c1` [amiodarone]: the “therapeutic advantage of class III antiarrhythmics reported in the literature” value in assay [1] is listed as “acting against arrhythmias which are otherwise resistant to therapy”. Turning to `CCN(CC)CCOc1c(C)cc(C(=O)Cc2ccc(OC)cc2)cc1C` [Example 10, 4'-(2-Diethylaminoethoxy)-3',5'-dimethyl-4-methoxydeoxybenzoin], in the assay on QT interval (setting [2]), the ED20 is 1.31 mg/kg. The “Rel. action ED20” value in the assay on QT interval was 2.7. As to `COc1ccccc1/C=C/C(=O)c1cc(C)c(OCCN2CCCCC2)c(C)c1.Cl` [Example 17, 3',5'-Dimethyl-4'-(2-(1-piperidinyl)ethoxy)-2-methoxychalcone hydrochloride], in the assay with QT interval (setting [2]), the ED20 was 1.69 mg/kg. The “Rel. action ED20” value in the assay on QT interval is 2.1. For the compound `Cc1ccccc1/C=C/C(=O)c1cc(C)c(OCCCN2CCCC2)c(C)c1.O=C(O)/C=C/C(=O)O` [Example 4, 3',5'-Dimethyl-4'-(3-(1-pyrrolidinyl)propoxy)-2-methylchalcon fumarate], the ED20 in the assay on QT interval (setting [2]) is 0.89 mg/kg. Also, in the assay on QT interval, the “Rel. action ED20” value came to 4.0. With `CCc1ccccc1CCC(=O)c1cc(C)c(OCCN2CCCCC2)c(C)c1` [Example 32, 3,5-Dimethyl-3'-(2-ethylphenyl)-4-(2-(1-piperidinyl)ethoxy)propiophenone f umarate], in the assay with QT interval (setting [2]), the ED20 was 1.62 mg/kg. Further, in the assay on QT interval, the “Rel. action ED20” value is recorded as 2.2. The corresponding values for `CCc1ccccc1C=CC(=O)c1cc(C)c(OCCN2CCCC2)c(C)c1` [Example 12, 3',5'-Dimethyl-4,-(2-(1-pyrrolidinyl)ethoxy)-2-ethylchalcone fumarate] are 0.74 mg/kg and 4.9. `Cc1ccccc1/C=C/C(=O)c1cc(C)c(OCCN2CCCC2)c(C)c1` [Example 1, 3',5'-Dimethyl-4,-(2-(1-pyrrolidinyl)ethoxy)-2-methylchalcone tosylate]: in the assay with QT interval (setting [2]), the ED20 was 0.74 mg/kg. In addition, the “Rel. action ED20” value in the assay with QT interval was 4.9. With `Cc1ccccc1/C=C/C(=O)c1cc(C)c(OCCN2CCCCC2)c(C)c1.O=C(O)/C=C/C(=O)O` [Example 2, 3',5'-Dimethyl-4'-(2-(1-piperidinyl)ethoxy)-2-methylchalcone fumarate], the ED20 in the assay on QT interval (setting [2]) was 0.76 mg/kg. In the assay with QT interval, the “Rel. action ED20” value turned out to be 4.7. On to `COc1ccccc1/C=C/C(=O)c1cc(C)c(OCCN2CCCC2)c(C)c1.O=C(O)/C=C/C(=O)O` [Example 13, 3',5'-Dimethyl-4'-(2-(1-pyrrolidinyl)ethoxy)-2-methoxychalcone fumarate], for which, in the assay with QT interval (setting [2]), the ED20 is 0.67 mg/kg. Further, in the assay on QT interval, the “Rel. action ED20” value is listed as 5.4. With `Cc1ccccc1CCC(=O)c1cc(C)c(OCCN2CCCC2)c(C)c1` [Example 25, 3,5-Dimethyl-4-(2-(1-pyrrolidinyl)ethoxy)-3'-(2-tolyl)-propiophenone fumarate], the ED20 in the assay on QT interval (setting [2]) was 0.79 mg/kg. Moreover, the “Rel. action ED20” value in the assay on QT interval stood at 4.6.

Take `COc1ccccc1CCC(=O)c1cc(C)c(OCCN2CCCCC2)c(C)c1` [Example 27, 3,5-Dimethyl-3'-(2-methoxyphenyl)-4-(2-(piperidinyl)ethoxy)propiophenone fumarate]: in the assay with QT interval (setting [2]), the ED20 was 1.2 mg/kg. Also, the “Rel. action ED20” value in the assay with QT interval was found to be 3.

As for “3',4'-Dimethyl-4'-(2-(1-pyrrolidinyl)ethoxy)-4-methoxychalcone fumarate [Example 24]”, in the assay on QT interval (setting [2]), the “Increase in QT interval ED 20%” value is 0.95 mg/kg. In addition, the “Rel. action ED20” value with QT interval was found to be 3.8. Take `CCc1ccccc1C=CC(=O)c1cc(C)c(OCCN2CCOCC2)c(C)c1` [Example 18, 3',5'-Dimethyl-4'-(2-(1-morpholinyl)ethoxy)-2-ethylchalcone hydrochloride]: the ED20 with QT interval (setting [2]) is 1.5 mg/kg. Besides, the “Rel. action ED20” value in the assay with QT interval is given as 2.4. For `CCN(CC)CCOc1c(C)cc(C(=O)/C=C/c2ccccc2C)cc1C.O=C(O)/C=C/C(=O)O` [Example 3, 4'-(2-Diethylaminoethoxy)-3',5'-dimethyl-2-methylchalcone fumarate], in that order: 0.65 mg/kg and 5.5.

The values are drawn from patent publication US5118682A, “p-Hydroxy phenone derivatives and the use thereof” (BASF Aktiengesellschaft, priority 1988, dated 1992).
